# Results as given in patent US20240299385A1 (ReWind Therapeutics NV, priority 2021, published 2024).
# Target: T1, human GPR17 receptor (Homo sapiens, UniProt Q13304)
# T1 construct: host or cells: HEK-293
# Assay: Calcium mobilization functional assay (Fluo-8, FLIPR TETRA) in HEK-293 hGPR17 (Gα-q assay)
# Assay type: cell-based
# Settings: antagonism of MDL29,951 (~EC80) induced Ca2+ signal; cell line (HEK-293 hGPR17 or HEK-293 Suchi5 hGPR17) not given
# Procedure: HEK-293 cells stably expressing the human GPR17 receptor (HEK-293 hGPR17) developed by Axxam (Bresso, Milan, Italy) were cultured at 37° C. in a humidified atmosphere of 5% CO2. Cells were grown in EMEM supplemented with FBS (10%), Penicillin/Streptomycin (1%), Ultraglutamine I (2 mM), puromycin (0.6 μg/mL), G418 (0.4 mg/mL), zeocin (50 μg/mL). This cell line was used to test the compound antagonistic activity by monitoring the Gα-q based signaling. Signaling via Gα-q leads to mobilization of calcium from internal stores. Elevated intracellular calcium levels can then be measured with calcium-sensitive fluorescent dyes (e.g., Fluo 8-No Wash Dye).
# GPR17 activation leads to both an increase in intracellular calcium (via Gα-q) and a decrease in cAMP levels (via Gα-i), implicating that both of these pathways play a role for in vivo function.
# Experiments were performed using the below cell lines, as described in part 1: • HEK-293 hGPR17 (used to study the compounds acting via Gα-q pathway) • HEK-293 Suchi5 hGPR17 (used to study the compounds acting via Gα-i pathway, where the Gα-i signaling is switched to a Gα-q signaling thanks to the Gα-i/q chimera Suchi5)
# GPR17 activation was able to induce an endoplasmic reticulum calcium (Ca^2+) store release in cytosol which could be measured using the fluorescent Ca^2+ sensitive dye Fluo-8 No Wash Dye as readout.
# HEK-293 hGPR17 and HEK-293 Suchi5 hGPR17 were seeded at a density of 15,000 cells/well into poly-D-lysine coated black 384-well plates with clear bottom in complete medium. Cells were incubated overnight at 37° C. in a humidified atmosphere of 5% CO2. Twenty-four hours after seeding, the culture medium was carefully removed manually and the cells were loaded for 60 minutes at room temperature with the Ca^2+ sensitive Fluo-8 No Wash Dye, according to manufacturer's instructions. Cells were then assayed using a fluorometric imaging plate reader (FLIPR^TETRA). Fluorescence (excitation: 470-495 nm; emission: 515-575 nm) was recorded during the experiment. […] After twenty minutes, a second injection of MDL29,951 at ˜EC80 (500 nM for HEK-293 hGPR17 and 2 nM for HEK-293 Suchi5 hGPR17) in assay buffer was performed at the FLIPR^TETRA and the signal of the emitted fluorescence was recorded for additional 2 minutes. All the compound injections and incubations were performed in duplicate. For data quality and data analysis the Screener® 16.0.6 (Genedata) software was used.
# T1 sequence (Q13304 whole entry): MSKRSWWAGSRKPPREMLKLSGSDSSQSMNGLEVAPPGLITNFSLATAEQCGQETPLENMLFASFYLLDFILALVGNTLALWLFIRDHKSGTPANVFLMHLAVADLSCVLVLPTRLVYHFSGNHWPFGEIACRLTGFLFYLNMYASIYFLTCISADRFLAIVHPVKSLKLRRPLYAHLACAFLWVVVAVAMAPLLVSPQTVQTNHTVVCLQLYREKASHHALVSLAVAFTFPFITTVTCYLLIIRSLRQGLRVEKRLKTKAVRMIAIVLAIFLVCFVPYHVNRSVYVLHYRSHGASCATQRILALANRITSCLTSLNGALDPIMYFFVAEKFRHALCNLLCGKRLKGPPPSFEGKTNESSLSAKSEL
row,Compound,IC50 [nM]
1,"N#Cc1ccc(NS(=O)(=O)c2c[nH]cc2Cc2cccc(OCC3CC3)c2)c(F)c1 [Cpd 342, N-(4-cyano-2-fluoro-phenyl)-4-[[3-(cyclopropylmethoxy)phenyl]methyl]-1H-pyrrole-3-sulfonamide]",500 to 5000
2,"N#Cc1ccc(NS(=O)(=O)c2c[nH]c(-c3ccccc3F)c2)c(F)c1 [Cpd 014, N-(4-cyano-2-fluorophenyl)-5-(2-fluorophenyl)-1H-pyrrole-3-sulfonamide]",< 500
3,"Cc1ccccc1-c1cc(S(=O)(=O)Nc2ccc(C#N)cc2F)c[nH]1 [Cpd 015, N-(4-cyano-2-fluoro-phenyl)-5-(o-tolyl)-1H-pyrrole-3-sulfonamide]",< 500
4,"Cc1ccc(-c2cc(S(=O)(=O)Nc3ccc(C#N)cc3F)c[nH]2)c(Cl)c1 [Cpd 250, 5-(2-chloro-4-methyl-phenyl)-N-(4-cyano-2-fluoro-phenyl)-1H-pyrrole-3-sulfonamide]",500 to 5000
5,"COc1c(F)cccc1-c1cc(S(=O)(=O)Nc2ccc(C#N)cc2F)c[nH]1 [Cpd 290, N-(4-cyano-2-fluoro-phenyl)-5-(3-fluoro-2-methoxy-phenyl)-1H-pyrrole-3-sulfonamide]",< 500
6,"N#Cc1ccccc1-c1cc(S(=O)(=O)Nc2cc(F)c(C(F)(F)F)cc2F)c[nH]1 [Cpd 355, 5-(2-cyanophenyl)-N-[2,5-difluoro-4-(trifluoromethyl)phenyl]-1H-pyrrole-3-sulfonamide]",500 to 5000
7,"Cc1cc(NS(=O)(=O)c2c[nH]c(-c3cc(Cl)ccc3F)c2)c(F)cc1C#N [Cpd 512, 5-(5-chloro-2-fluorophenyl)-N-(4-cyano-2-fluoro-5-methylphenyl)-1H-pyrrole-3-sulfonamide]",< 500
8,"Cc1cc(F)c(NS(=O)(=O)c2c[nH]c(-c3ccccn3)c2)cc1F [Cpd 173, N-(2,5-difluoro-4-methyl-phenyl)-5-(2-pyridyl)-1H-pyrrole-3-sulfonamide]",< 500
9,"COc1ccc(Cl)c(-c2cc(S(=O)(=O)Nc3ccc(C#N)cc3F)c[nH]2)c1 [Cpd 257, 5-(2-chloro-5-methoxy-phenyl)-N-(4-cyano-2-fluoro-phenyl)-1H-pyrrole-3-sulfonamide]",< 500
10,"COc1cccc(Cc2c[nH]cc2S(=O)(=O)Nc2cc(F)c(OC(F)F)cc2F)c1 [Cpd 480, N-[4-(difluoromethoxy)-2,5-difluorophenyl]-4-[(3-methoxyphenyl)methyl]-1H-pyrrole-3-sulfonamide]",< 500
11,"N#Cc1ccc(NS(=O)(=O)c2c[nH]c(-c3ncccc3C(F)(F)F)c2)c(F)c1 [Cpd 310, N-(4-cyano-2-fluoro-phenyl)-5-[3-(trifluoromethyl)-2-pyridyl]-1H-pyrrole-3-sulfonamide]",500 to 5000
12,"Cn1ccc(-c2cc(S(=O)(=O)Nc3ccc(C#N)cc3F)c[nH]2)n1 [Cpd 081, N-(4-cyano-2-fluoro-phenyl)-5-(1-methylpyrazol-3-yl)-1H-pyrrole-3-sulfonamide]",500 to 5000
13,"N#Cc1cc(F)c(NS(=O)(=O)c2c[nH]c(-c3cc(Cl)ccc3F)c2)cc1F [Cpd 508, 5-(5-chloro-2-fluorophenyl)-N-(4-cyano-2,5-difluorophenyl)-1H-pyrrole-3-sulfonamide]",< 500
14,"Cc1ccnc(C)c1NS(=O)(=O)c1c[nH]c(-c2ccccc2)c1 [Cpd 129, N-(2,4-dimethyl-3-pyridyl)-5-phenyl-1H-pyrrole-3-sulfonamide]",500 to 5000
15,"CC(C)c1cccc(-c2cc(S(=O)(=O)Nc3ccc(C#N)cc3F)c[nH]2)c1 [Cpd 022, N-(4-cyano-2-fluoro-phenyl)-5-(3-isopropylphenyl)-1H-pyrrole-3-sulfonamide]",5000 to 50000
16,"O=S(=O)(Nc1cccc2nsnc12)c1c[nH]c(-c2ccccc2F)c1 [Cpd 050, N-(2,1,3-benzothiadiazol-4-yl)-5-(2-fluorophenyl)-1H-pyrrole-3-sulfonamide]",< 500
17,"O=S(=O)(Nc1cc(F)c(C(F)(F)F)cc1F)c1c[nH]cc1Cc1cccc(C2CC2)c1 [Cpd 590, 4-[(3-cyclopropylphenyl)methyl]-N-[2,5-difluoro-4-(trifluoromethyl)phenyl]-1H-pyrrole-3-sulfonamide]",5000 to 50000
18,"Cc1cccc(-c2cc(S(=O)(=O)Nc3ccc(C#N)cc3F)c[nH]2)c1F [Cpd 042, N-(4-cyano-2-fluoro-phenyl)-5-(2-fluoro-3-methyl-phenyl)-1H-pyrrole-3-sulfonamide]",< 500

row,Compound,IC50 [nM]
1,"O=S(=O)(Nc1ncc(OCC(F)F)cc1F)c1c[nH]cc1Cc1ccccc1 [Cpd 432, 4-benzyl-N-[5-(2,2-difluoroethoxy)-3-fluoropyridin-2-yl]-1H-pyrrole-3-sulfonamide]",500 to 5000
2,"O=S(=O)(Nc1ccc(C(F)(F)F)nc1)c1c[nH]cc1Cc1ccccc1 [Cpd 152, 4-benzyl-N-[6-(trifluoromethyl)-3-pyridyl]-1H-pyrrole-3-sulfonamide]",5000 to 50000
3,"Cc1ccc(F)cc1-c1cc(S(=O)(=O)Nc2ccc(C#N)cc2F)c[nH]1 [Cpd 285, N-(4-cyano-2-fluoro-phenyl)-5-(5-fluoro-2-methyl-phenyl)-1H-pyrrole-3-sulfonamide]",< 500
4,"N#Cc1ccc(NS(=O)(=O)c2c[nH]c(-c3cc(F)c(F)cc3F)c2)c(F)c1 [Cpd 088, N-(4-cyano-2-fluoro-phenyl)-5-(2,4,5-trifluorophenyl)-1H-pyrrole-3-sulfonamide]",< 500
5,"O=S(=O)(Nc1cc(F)c(OC(F)F)cc1F)c1c[nH]c(-c2ncc(C(F)(F)F)s2)c1 [Cpd 637, N-[4-(difluoromethoxy)-2,5-difluorophenyl]-5-[5-(trifluoromethyl)-1,3-thiazol-2-yl]-1H-pyrrole-3-sulfonamide]",500 to 5000
6,"COc1csc(-c2cc(S(=O)(=O)Nc3cc(F)c(OC(F)F)cc3F)c[nH]2)c1 [Cpd 660, N-[4-(difluoromethoxy)-2,5-difluorophenyl]-5-(4-methoxythiophen-2-yl)-1H-pyrrole-3-sulfonamide]",< 500
7,"COc1cccc(-c2cc(S(=O)(=O)Nc3cc(F)c(C(F)(F)F)cc3F)c[nH]2)c1 [Cpd 323, N-[2,5-difluoro-4-(trifluoromethyl)phenyl]-5-(3-methoxyphenyl)-1H-pyrrole-3-sulfonamide]",500 to 5000
8,"COc1ccnc(-c2cc(S(=O)(=O)Nc3cc(F)c(C(F)(F)F)cc3F)c[nH]2)c1 [Cpd 305, N-[2,5-difluoro-4-(trifluoromethyl)phenyl]-5-(4-methoxy-2-pyridyl)-1H-pyrrole-3-sulfonamide]",500 to 5000
9,"O=S(=O)(Nc1cnc(C(F)(F)F)s1)c1c[nH]c(-c2ccccc2)c1 [Cpd 375, 5-phenyl-N-[2-(trifluoromethyl)thiazol-5-yl]-1H-pyrrole-3-sulfonamide]",5000 to 50000
10,"N#CCOc1cc(F)c(NS(=O)(=O)c2c[nH]c(-c3ccccc3)c2)cc1F [Cpd 065, N-[4-(cyanomethoxy)-2,5-difluoro-phenyl]-5-phenyl-1H-pyrrole-3-sulfonamide]",< 500
11,"N#Cc1ccc(NS(=O)(=O)c2c[nH]c(-c3cccc(C(F)(F)F)c3)c2)c(F)c1 [Cpd 021, N-(4-cyano-2-fluoro-phenyl)-5-[3-(trifluoromethyl)phenyl]-1H-pyrrole-3-sulfonamide]",500 to 5000
12,"N#Cc1ccc(NS(=O)(=O)c2c[nH]c(-c3ccco3)c2)c(F)c1 [Cpd 445, N-(4-cyano-2-fluorophenyl)-5-(furan-2-yl)-1H-pyrrole-3-sulfonamide]",< 500
13,"N#Cc1ccc(NS(=O)(=O)c2c[nH]c(-c3ccoc3)c2)c(F)c1 [Cpd 441, N-(4-cyano-2-fluorophenyl)-5-(furan-3-yl)-1H-pyrrole-3-sulfonamide]",< 500
14,"N#Cc1cnc(NS(=O)(=O)c2c[nH]c(-c3ccccc3)c2)c(F)c1 [Cpd 166, N-(5-cyano-3-fluoro-2-pyridyl)-5-phenyl-1H-pyrrole-3-sulfonamide]",500 to 5000
15,"O=C1CCCN1c1cc(S(=O)(=O)Nc2cc(F)c(C(F)(F)F)cc2F)c[nH]1 [Cpd 245, N-[2,5-difluoro-4-(trifluoromethyl)phenyl]-5-(2-oxopyrrolidin-1-yl)-1H-pyrrole-3-sulfonamide]",5000 to 50000
16,"O=S(=O)(Nc1ccc(OC(F)(F)F)cc1F)c1c[nH]c(-c2ccccn2)c1 [Cpd 157, N-[2-fluoro-4-(trifluoromethoxy)phenyl]-5-(2-pyridyl)-1H-pyrrole-3-sulfonamide]",500 to 5000
17,"N#Cc1ccc(NS(=O)(=O)c2c[nH]c(-c3cc(Cl)cs3)c2)c(F)c1 [Cpd 563, 5-(4-chlorothiophen-2-yl)-N-(4-cyano-2-fluorophenyl)-1H-pyrrole-3-sulfonamide]",< 500
